According to patent US20090209460A1, “COMPOSITIONS AND METHODS FOR TREATING OBESITY AND RELATED METABOLIC DISORDERS” (Amylin Pharmaceuticals, Inc., priority 2005, published 2009):
Non-standard residues stand in square brackets, D forms with d. Residues, ends and D or L forms follow the SMILES beside them. No end group written: not given here. beta turn mimic B = not defined here

Tests used:
[1] = brush border membrane (BBM) stability assay; assay type: in vitro ADME, human; details: for remaining at 5 h: brush border membrane extract (e.g. kidney), percent compound remaining after a 5 hour incubation, human brush border membrane assay, read-out: hBBM
Experimental: Some exemplary NMX Peptides and FNX Peptides were tested for stability in a brush border membrane (BBM) assay as described herein. To determine the enzymatic stability of peptide hormones peptides are incubated with a preparation of human brush border membranes extract (e.g., kidney), and the stability of the peptide is determined by measuring concentration of the intact peptide at specific intervals. The brush border membrane extract contains dipeptidyl peptidase IV (DPP-IV), neutral endopeptidases, peptidyl-dipeptidase A, carboxypeptidases and aminopeptidases. These are the primary enzymes that degrade peptides in vivo and are found in the kidneys, liver, lungs and pancreas. Resistance against these human proteases would increase peptide half-life. In the BBM assay test peptide was subjected to digestion over a period of five (5) hours with human brush border membrane extracts, e.g. kidney, at 37° C. At desired timepoints digestion was stopped by addition of quench solution, typically 50% ACN, 1% FA. After centrifugation to remove membrane debris, supernatant was subjected to mass spectrometry using a selected ion scan for the intact molecule of interest. Values are expressed as a percent of stable. A value of at least 80 or greater is regarded as an extremely stable molecule. A value of at least 70 or greater is a molecule with significant stability.

[2] = system: NIH/Swiss mice; assay: acute food intake assay, lean overnight-fasted NIH/Swiss mice, intraperitoneal injection; assay type: in vivo, mouse; details: for Food Intake Inhibition: mouse assay, dose of 200 mg/kg, measured at 60 minutes; for reduction of food intake: administered systemically (i.p. to mice), dose and time not stated; for FI (60′, 200) / ED50 at t = 60: food intake; for FI (60′, 200): % change relative to control, 60 min
Experimental: The effect of NMX Peptides, FNX Peptides or NMX Receptor agonists on food intake when systemically administered was investigated using an acute food intake assay. This assay measured food consumption in lean subjects. Lean, group-housed, overnight-fasted NIH/Swiss mice. All in vivo tests were performed with peripheral injections of peptide. […] The dose-response data are presented herein. The protocol is described below. Female NIH/Swiss mice (8-24 weeks old) were group housed with a 12:12 hour light:dark cycle, with lights on at 0300. Water and a standard pelleted mouse chow diet are available ad libitum, except as noted. Animals are fasted starting at approximately 1530 hrs, 1 day prior to experiment. At time=0 min, all animals are given an intraperitoneal injection of vehicle or polypeptide in a volume of 200 uL/mouse and immediately given a pre-weighed amount (10-15 g) of the standard chow. Food is removed and weighed at 30, 60, and 120 minutes to determine the amount of food consumed. The effects of treatment on food intake are expressed as % change relative to control.

[3] = system: mice with diet induced obesity (mouse DIO); assay: cumulative food intake in mouse DIO after IP injection (FIGS. 6 and 7); assay type: in vivo; details: injected IP at t=0; measured at 30, 60, 120 and 180 min
Experimental: The activities of the following compounds are shown: A, [MimicB36] FN38; B, [His37] FN38; C,
[His35] FN38; D, [Phe33] FN38; E, [Val33] FN38; F, Des-(Ser6,Lys7,Thr8,Gln9) FN38; G, Des-Val16,Val17-FN38; H, [Phe31] FN38; I, Des-(Val16,Val17,Phe24,Ala25,Ser26,Gln27) FN38; J, Des-(Phe1,Leu2,Phe3,His4)FN38; and K, Des-(Phe24,Ala25,Ser26,Gln27)-FN38. […] Points represent mean±sd of n=4 cages (3 mice/cage). Peptide was injected IP at t=0. Food was introduced immediately after injection and amount consumed measured at t=30, 60, 120, and 180 min. In the figure, * p<0.05 vs. vehicle control; ANOVA, Dunnett's test.

[4] = body weight and food intake in mice with diet induced obesity (mouse DIO), osmotic pump; assay type: in vivo; details: for d 14 BWt loss: day 14
Experimental: The effect of FN38 and related compounds on body weight and food intake in obese subjects was investigated. Mice having diet induced obesity (DIO) were used. All in vivo tests were performed with peripheral injections of peptide. […] 4-week-old male C57BL/6 mice were group housed with water and a standard pelleted mouse chow diet available ad libitum, except as noted, and were maintained on a on a high fat diet (58% kcal from fat) for 4 weeks prior to the experiment. At the end of fattening period, osmotic pumps were implanted interscapularly under anesthesia. Mice received pumps continuously delivering vehicle (50% DMSO in water or saline) or polypeptide at the dose indicated. Food intake and body weight measurements were obtained weekly.

| Compound | remaining at 5 h [1] [%] | Food Intake Inhibition [2] [%] | cumulative food intake in mouse DIO (FIGS. 6A, 6B, 7A, 7B) [3] | reduction of food intake [2] | FI (60′, 200) [2] [%] | ED50 at t = 60 [2] | d 14 BWt loss ([4]; mouse DIO) [%] | other results |
| --- | --- | --- | --- | --- | --- | --- | --- | --- |
| CC(C)C[C@H](NC(=O)[C@H](CCCCN)NC(=O)[C@H](CCC(N)=O)NC(=O)[C@@H](NC(=O)[C@H](CCCCN)NC(=O)[C@H](CO)NC(=O)[C@H](Cc1ccc(O)cc1)NC(=O)[C@H](Cc1c[nH]cn1)NC(=O)[C@H](Cc1ccccc1)NC(=O)[C@H](CC(C)C)NC(=O)[C@@H](N)Cc1ccccc1)[C@@H](C)O)C(=O)NCC(=O)N[C@@H](CCCCN)C(=O)N[C@@H](CO)C(=O)N[C@@H](CC(N)=O)C(=O)NCC(=O)N[C@@H](Cc1ccc(O)cc1)C(=O)N[C@@H](Cc1ccccc1)C(=O)N[C@@H](CC(C)C)C(=O)N[C@@H](Cc1ccccc1)C(=O)N[C@@H](CCCNC(=N)N)C(=O)N1CCC[C@H]1C(=O)N[C@@H](CCCNC(=N)N)C(=O)N[C@@H](CC(N)=O)C(N)=O [Des-(Val16-Arg29)FN38] (H-FLFHYSKTQKLGKSNGYFLFRPRN-NH2; N-terminus assumed) | 91 | −42 | reduction of cumulative food intake |  |  |  |  |  |
| CC[C@H](C)[C@H](NC(=O)[C@@H](NC(=O)CNC(=O)CNC(=O)[C@@H]1CCCN1C(=O)[C@@H](NC(=O)[C@H](CCC(N)=O)NC(=O)[C@@H](NC(=O)[C@H](CCC(=O)O)NC(=O)[C@H](CCC(=O)O)NC(=O)[C@H](CC(=O)O)NC(=O)[C@@H](N)CO)C(C)C)C(C)C)C(C)C)C(=O)N[C@@H](CO)C(=O)N[C@@H](CC(N)=O)C(=O)NCC(=O)N[C@@H](Cc1ccc(O)cc1)C(=O)N[C@@H](Cc1ccccc1)C(=O)N[C@@H](CC(C)C)C(=O)N[C@@H](Cc1ccccc1)C(=O)N[C@@H](CCCNC(=N)N)C(=O)N1CCC[C@H]1C(=O)N[C@@H](CCCNC(=N)N)C(=O)N[C@@H](CC(N)=O)C(N)=O [Compound 163452, reference compound] (H-SDEEVQVPGGVISNGYFLFRPRN-NH2; N-terminus assumed) |  |  |  | up to 95% | −88 | 0.022 mg/kg | 1.5 | ED50 for effect on food intake ([2]; over 30 min, i.p., mice): 9.0 nmol/kg; body weight gain and food intake in the DIO assay ([4]; 75 nmol/kg/day): decreased body weight gain and food intake; long acting effect in mouse DIO ([4]; mouse DIO): did not have a long acting effect |
| CC[C@H](C)[C@H](NC(=O)[C@@H](NC(=O)CNC(=O)CNC(=O)[C@@H]1CCCN1C(=O)[C@@H](NC(=O)[C@H](CCC(N)=O)NC(=O)[C@@H](NC(=O)[C@H](CCC(=O)O)NC(=O)[C@H](CCC(=O)O)NC(=O)[C@H](CC(=O)O)NC(=O)[C@H](CO)NC(=O)[C@H](CC(N)=O)NC(=O)[C@H](CO)NC(=O)[C@H](CCCCN)NC(=O)CNC(=O)[C@H](CC(C)C)NC(=O)[C@H](CCCCN)NC(=O)[C@H](CCC(N)=O)NC(=O)[C@@H](NC(=O)[C@H](CCCCN)NC(=O)[C@H](CO)NC(=O)[C@H](Cc1ccc(O)cc1)NC(=O)[C@H](Cc1c[nH]cn1)NC(=O)[C@H](Cc1ccccc1)NC(=O)[C@H](CC(C)C)NC(=O)[C@@H](N)Cc1ccccc1)[C@@H](C)O)C(C)C)C(C)C)C(C)C)C(=O)N[C@@H](CO)C(=O)N[C@@H](CC(N)=O)C(=O)NCC(=O)N[C@@H](Cc1ccc(O)cc1)C(=O)N[C@@H](Cc1ccccc1)C(=O)N[C@@H](CC(C)C)C(=O)N[C@@H](Cc1ccccc1)C(=O)N[C@@H](CCCNC(=N)N)C(=O)N1CCC[C@H]1C(=O)N[C@@H](CCCNC(=N)N)C(=O)N[C@@H](CC(N)=O)C(N)=O [Compound 165063] (H-FLFHYSKTQKLGKSNSDEEVQVPGGVISNGYFLFRPRN-NH2; N-terminus assumed) | 73 | −88 |  | at least 89% | −88 | 6 nmol/kg | 8.6 | BBM ([1]; percent of stable, human brush border membrane extracts, five hours, 37° C.): 73%; d 7 BWt loss ([4]; mouse DIO, day 7): 5.1% |
| FLFHYSKTQKLGKSNVVEELQSPFASQSRGYFLFR(beta turn mimic B)RN-NH2 (FLFHYSKTQKLGKSNVVEELQSPFASQSRGYFLFR[beta turn mimic B]RN-NH2; reading uncertain) [Compound A] |  |  | either not active or weakly active |  |  |  |  |  |
| CC(C)C[C@H](NC(=O)[C@H](CCCCN)NC(=O)[C@H](CCC(N)=O)NC(=O)[C@@H](NC(=O)[C@H](CCCCN)NC(=O)[C@H](CO)NC(=O)[C@H](Cc1ccc(O)cc1)NC(=O)[C@H](Cc1c[nH]cn1)NC(=O)[C@H](Cc1ccccc1)NC(=O)[C@H](CC(C)C)NC(=O)[C@@H](N)Cc1ccccc1)[C@@H](C)O)C(=O)NCC(=O)N[C@@H](CCCCN)C(=O)N[C@@H](CO)C(=O)N[C@@H](CC(N)=O)C(=O)N[C@H](C(=O)N[C@H](C(=O)N[C@@H](CCC(=O)O)C(=O)N[C@@H](CCC(=O)O)C(=O)N[C@@H](CC(C)C)C(=O)N[C@@H](CCC(N)=O)C(=O)N[C@@H](CO)C(=O)N1CCC[C@H]1C(=O)N[C@@H](Cc1ccccc1)C(=O)N[C@@H](C)C(=O)N[C@@H](CO)C(=O)N[C@@H](CCC(N)=O)C(=O)N[C@@H](CO)C(=O)N[C@@H](CCCNC(=N)N)C(=O)NCC(=O)N[C@@H](Cc1ccc(O)cc1)C(=O)N[C@@H](Cc1ccccc1)C(=O)N[C@@H](CC(C)C)C(=O)N[C@@H](Cc1ccccc1)C(=O)N[C@@H](CCCNC(=N)N)C(=O)N1CCC[C@H]1C(=O)N[C@@H](Cc1c[nH]cn1)C(=O)N[C@@H](CC(N)=O)C(N)=O)C(C)C)C(C)C [Compound B] (H-FLFHYSKTQKLGKSNVVEELQSPFASQSRGYFLFRPHN-NH2; N-terminus assumed) |  |  | either not active or weakly active |  |  |  |  |  |
| CC(C)C[C@H](NC(=O)[C@H](CCCCN)NC(=O)[C@H](CCC(N)=O)NC(=O)[C@@H](NC(=O)[C@H](CCCCN)NC(=O)[C@H](CO)NC(=O)[C@H](Cc1ccc(O)cc1)NC(=O)[C@H](Cc1c[nH]cn1)NC(=O)[C@H](Cc1ccccc1)NC(=O)[C@H](CC(C)C)NC(=O)[C@@H](N)Cc1ccccc1)[C@@H](C)O)C(=O)NCC(=O)N[C@@H](CCCCN)C(=O)N[C@@H](CO)C(=O)N[C@@H](CC(N)=O)C(=O)N[C@H](C(=O)N[C@H](C(=O)N[C@@H](CCC(=O)O)C(=O)N[C@@H](CCC(=O)O)C(=O)N[C@@H](CC(C)C)C(=O)N[C@@H](CCC(N)=O)C(=O)N[C@@H](CO)C(=O)N1CCC[C@H]1C(=O)N[C@@H](Cc1ccccc1)C(=O)N[C@@H](C)C(=O)N[C@@H](CO)C(=O)N[C@@H](CCC(N)=O)C(=O)N[C@@H](CO)C(=O)N[C@@H](CCCNC(=N)N)C(=O)NCC(=O)N[C@@H](Cc1ccc(O)cc1)C(=O)N[C@@H](Cc1ccccc1)C(=O)N[C@@H](CC(C)C)C(=O)N[C@@H](Cc1ccccc1)C(=O)N[C@@H](Cc1c[nH]cn1)C(=O)N1CCC[C@H]1C(=O)N[C@@H](CCCNC(=N)N)C(=O)N[C@@H](CC(N)=O)C(N)=O)C(C)C)C(C)C [Compound C] (H-FLFHYSKTQKLGKSNVVEELQSPFASQSRGYFLFHPRN-NH2; N-terminus assumed) |  |  | either not active or weakly active |  |  |  |  |  |
